Reference: patent US8258114B2, “Modulation of glucose-6-phosphatase translocase expression” (Isis Pharmaceuticals, Inc., priority 2004, dated 2012)

Tests used:
Assay type in all cases: in vivo, mouse
db/db mice [1] = experiment: Fed plasma glucose in db/db mice, dose-response study (Example 11)
Description: (§1) Seven-week old male C57B1/6J-Lepr db/db mice (Jackson Laboratory, Bar Harbor, Me.) were fed a diet with a fat content of about 14% (Formulab Diet 5008) and were subcutaneously injected with ISIS 116847 (SEQ ID NO: 143), ISIS 141923 (SEQ ID NO: 144), or ISIS 148985 (SEQ ID NO: 118), an antisense inhibitor of glucose-6-phosphatase translocase, […] […] Saline-injected animals served as controls. 48 hours after the eighth and final dose was administered, mice were sacrificed and target levels were evaluated in liver. RNA isolation and target mRNA expression level quantitation were performed as described by other examples herein.
For seven animals per treatment group, plasma glucose was measured with routine clinical analyzer instruments (e.g. Olympus Clinical Analyzer). Data are expressed as averages per treatment group.

[2] = Liver triglycerides and glycogen stores in db/db mice (Table 8)
Description: as §1
Patients with the human glycogen storage disease type 1b have mutations in the glucose-6-phosphatase translocase gene. Because one manifestation of these mutations is a defect in hepatic glycogen deposition, the db/db mice were further evaluated at the end of the treatment period for liver glycogen stores. Tissue glycogen levels were measured using the Glucose Trinder Reagent (Sigma-Aldrich, St. Louis, Mo.). Tissue triglyceride levels were measured using a Triglyceride GPO Assay from Roche Diagnostics (Indianapolis, Ind.). Liver triglyceride levels were used to assess hepatic steatosis, or accumulation of lipids in the liver. Hepatic steatosis was also assessed by routine histological analysis of frozen liver tissue sections stained with oil red 0 stain, which is commonly used to visualize lipid deposits, and counterstained with hematoxylin and eosin, to visualize nuclei and cytoplasm, respectively. Data are presented in Table 8 as the averages from 5 animals per treatment group.

db/db mice [3] = experiment: Fed and fasted plasma glucose in db/db mice (Example 10); settings: 25 mg/kg s.c. twice weekly; for fasted plasma glucose: week 3, overnight fast, saline 343
Description: (§2) Seven-week old male C57B1/6J-Lepr db/db mice (Jackson Laboratory, Bar Harbor, Me.) were fed a diet with a fat content of about 14% and were subcutaneously injected with one or more of the oligomeric compounds of the invention or a control compound at a dose of 25 mg/kg two times per week. Glucose-6-phosphatase translocase antisense oligonucleotides used were ISIS 148985 (SEQ ID NO: 118) and ISIS 149008 (SEQ ID NO: 141). ISIS 116847 (SEQ ID NO: 143), targeted to mouse PTEN, was used as a positive control. The scrambled control oligonucleotide ISIS 141923 ([…], incorporated herein as SEQ ID NO: 144) served as a negative control along with saline-injected animals. ISIS 141923 and ISIS 116847 are chimeric oligonucleotides (“gapmers”) 20 nucleotides in length, composed of a central “gap” region consisting of 10 2′-deoxynucleotides, which is flanked on both sides (5′ and 3′) by five-nucleotide “wings”. The wings are composed of 2′-O-(2-methoxyethyl) nucleotides, also known as 2′-MOE nucleotides. The internucleoside (backbone) linkages are phosphorothioate throughout the oligonucleotide. All cytidine residues are 5-methylcytidines.
The effects of target inhibition on glucose metabolism were evaluated in the db/db mice treated with the oligomeric compounds of the invention. For seven animals per treatment group, plasma glucose (fed) was measured prior to the start of the treatment (week 0) and during weeks 2 and 4 of treatment. Fasted glucose measurements were made during week three, after animals were fasted overnight (about 15 hours). Data are expressed as the averages per treatment group.

[4] = tested on: glucose-6-phosphatase translocase mRNA; experiment: Target mRNA reduction in liver of db/db mice, dose-response study
Description: Seven-week old male C57B1/6J-Lepr db/db mice (Jackson Laboratory, Bar Harbor, Me.) were fed a diet with a fat content of about 14% (Formulab Diet 5008) and were subcutaneously injected with ISIS 116847 (SEQ ID NO: 143), ISIS 141923 (SEQ ID NO: 144), or ISIS 148985 (SEQ ID NO: 118), an antisense inhibitor of glucose-6-phosphatase translocase, at a dose of 25 mg/kg two times per week for 4 weeks. […] Saline-injected animals served as controls. 48 hours after the eighth and final dose was administered, mice were sacrificed and target levels were evaluated in liver. RNA isolation and target mRNA expression level quantitation were performed as described by other examples herein.
Glucose-6-phosphatase translocase mRNA levels in db/db mouse livers were measured at the end of study using RIBOGREEN™ RNA quantification reagent (Molecular Probes, Inc. Eugene, Oreg.) as taught in previous examples above. Data are expressed as the average of 5 animals per treatment group. […] Target mRNA levels were reduced by approximately 21% by ISIS 148985. […] Therefore, antisense inhibitors of glucose-6-phosphatase translocase reduced target mRNA levels in the liver of db/db mice, and ISIS 149008 did so in a dose-dependent manner.

[5] = tested on: glucose-6-phosphatase translocase mRNA; experiment: Target mRNA reduction in liver of db/db mice (Example 10); settings: 25 mg/kg s.c. twice weekly, end of study
Description: as §2
48 hours after the final treatment, mice were sacrificed and target levels were evaluated in liver. RNA isolation and target mRNA expression level quantitation were performed as described by other examples herein.
Glucose-6-phosphatase translocase mRNA levels in db/db mouse livers were measured at the end of study using RIBOGREEN™ RNA quantification reagent (Molecular Probes, Inc. Eugene, Oreg.) as taught in previous examples above. Unless otherwise noted, data are expressed as the average percent inhibition from 5 animals per treatment group.

[6] = Plasma neutrophils and lymphocytes in db/db mice (Table 9)
Description: as §1
Because mutations in the glucose-6-phosphatase translocase gene responsible for human glycogen storage disease type 1b result in neutropenia, plasma neutrophils and lymphocytes were measured for animals in each treatment group.

[7] = 25 mg/kg twice weekly, week 0, saline 280
[8] = 25 mg/kg twice weekly, week 2, saline 517
[9] = 25 mg/kg twice weekly, week 4, saline 510
[10] = 25 mg/kg twice weekly 4 weeks (25 mg/mL [sic]), saline 25
[11] = 25 mg/kg twice weekly 4 weeks (25 mg/mL [sic]), saline 47
[12] = 25 mg/kg twice weekly for 4 weeks
[13] = 25 mg/kg twice weekly 4 weeks (25 mg/mL [sic]), saline 0.9
[14] = 25 mg/kg twice weekly 4 weeks (25 mg/mL [sic]), saline 2.7

Sequence: CCTTCCCTGAAGGTTCCTCC (chemistry not given here) [ISIS 141923, scrambled control oligonucleotide, negative control, reference compound]
- fed plasma glucose (db/db mice [1]; [7]): approximately 287 mg/dL
- fed plasma glucose (db/db mice [1]; [8]): ~456 mg/dL
- fed plasma glucose (db/db mice [1]; [9]): ~510 mg/dL
- Liver Triglycerides [2, 10]: 30 mg/g
- Liver Glycogen [2, 11]: 43 mg/g
- fed plasma glucose (db/db mice [3]; week 0, saline 270): approximately 272 mg/dL
- fed plasma glucose (db/db mice [3]; week 2, saline 534): ~538 mg/dL
- fasted plasma glucose (db/db mice [3]): approximately 287 mg/dL
- fed plasma glucose (db/db mice [3]; week 4, saline 627): ~563 mg/dL
- Glucose-6-phosphatase translocase mRNA levels in liver, reduction compared to saline [4, 12]: approximately 1%
- Glucose-6-phosphatase translocase mRNA levels in liver, reduction compared to saline [5]: about 4%
- Neutrophils Plasma [6, 13]: 0.9 cells/nL
- Lymphocytes Plasma [6, 14]: 2.6 cells/nL

Sequence: CTGCTAGCCTCTGGATTTGA (chemistry not given here) [ISIS 116847, positive control oligonucleotide targeted to mouse PTEN, reference compound]
- fed plasma glucose (db/db mice [1]; [7]): approximately 282 mg/dL
- fed plasma glucose (db/db mice [1]; [8]): ~291 mg/dL
- fed plasma glucose (db/db mice [1]; [9]): ~224 mg/dL
- Liver Triglycerides [2, 10]: 67 mg/g
- Liver Glycogen [2, 11]: 39 mg/g
- fed plasma glucose (db/db mice [3]; week 0, saline 270): approximately 267 mg/dL
- fed plasma glucose (db/db mice [3]; week 2, saline 534): ~360 mg/dL
- fasted plasma glucose (db/db mice [3]): approximately 241 mg/dL
- fed plasma glucose (db/db mice [3]; week 4, saline 627): ~334 mg/dL
- Glucose-6-phosphatase translocase mRNA levels in liver, reduction compared to saline [4, 12]: approximately 27%
- Glucose-6-phosphatase translocase mRNA levels in liver, reduction compared to saline [5]: about 8%
- Neutrophils Plasma [6, 13]: 0.8 cells/nL
- Lymphocytes Plasma [6, 14]: 3.1 cells/nL

Sequence: GCTCCATAGCGAGGACTCGA (chemistry not given here) [ISIS 148985]
- fed plasma glucose (db/db mice [1]; [7]): approximately 289 mg/dL
- fed plasma glucose (db/db mice [1]; [8]): ~394 mg/dL
- fed plasma glucose (db/db mice [1]; [9]): ~443 mg/dL
- Liver Glycogen [2, 11]: 47 mg/g
- fed plasma glucose (db/db mice [3]; week 0, saline 270): approximately 267 mg/dL
- fed plasma glucose (db/db mice [3]; week 2, saline 534): ~512 mg/dL
- fasted plasma glucose (db/db mice [3]): approximately 288 mg/dL
- fed plasma glucose (db/db mice [3]; week 4, saline 627): ~552 mg/dL
- Glucose-6-phosphatase translocase mRNA levels in liver, reduction compared to saline [4, 12]: approximately 21%
- Glucose-6-phosphatase translocase mRNA levels in liver, reduction compared to saline [5]: approximately 19%
- Neutrophils Plasma [6, 13]: 1.0 cells/nL
- Lymphocytes Plasma [6, 14]: 3.3 cells/nL

Sequence: TATACAAGTCGGTTTGCCCT (chemistry not given here) [ISIS 149008]
- fed plasma glucose (db/db mice [1]; 6.25 mg/kg twice weekly, week 0): approximately 289 mg/dL
- fed plasma glucose (db/db mice [1]; 6.25 mg/kg twice weekly, week 2): ~397 mg/dL
- fed plasma glucose (db/db mice [1]; 6.25 mg/kg twice weekly, week 4): ~478 mg/dL
- fed plasma glucose (db/db mice [1]; 12.5 mg/kg twice weekly, week 0): approximately 283 mg/dL
- fed plasma glucose (db/db mice [1]; 12.5 mg/kg twice weekly, week 2): ~411 mg/dL
- fed plasma glucose (db/db mice [1]; 12.5 mg/kg twice weekly, week 4): ~203 mg/dL
- fed plasma glucose (db/db mice [1]; [7]): approximately 286 mg/dL
- fed plasma glucose (db/db mice [1]; [8]): ~359 mg/dL
- fed plasma glucose (db/db mice [1]; [9]): ~299 mg/dL
- Liver Triglycerides [2, 10]: 58 mg/g
- Liver Glycogen [2, 11]: 45 mg/g
- Liver Glycogen ([2]; dose 12.5 mg/mL [sic]): 45 mg/g
- Liver Triglycerides ([2]; dose 12.5 mg/mL [sic]): 41 mg/g
- Liver Glycogen ([2]; dose printed 6 mg/mL): 48 mg/g
- Liver Triglycerides ([2]; dose printed 6 mg/mL): 33 mg/g
- fed plasma glucose (db/db mice [3]; week 0, saline 270): approximately 272 mg/dL
- fed plasma glucose (db/db mice [3]; week 2, saline 534): ~390 mg/dL
- fasted plasma glucose (db/db mice [3]): approximately 241 mg/dL
- fed plasma glucose (db/db mice [3]; week 4, saline 627): ~347 mg/dL
- Glucose-6-phosphatase translocase mRNA levels in liver, reduction compared to saline ([4]; 6.25 mg/kg twice weekly for 4 weeks): approximately 45%
- Glucose-6-phosphatase translocase mRNA levels in liver, reduction compared to saline ([4]; 12.5 mg/kg twice weekly for 4 weeks): approximately 69%
- Glucose-6-phosphatase translocase mRNA levels in liver, reduction compared to saline [4, 12]: approximately 81%
- Glucose-6-phosphatase translocase mRNA levels in liver, reduction compared to saline [5]: approximately 82%
- Neutrophils Plasma [6, 13]: 1.0 cells/nL
- Lymphocytes Plasma [6, 14]: 3.7 cells/nL
- Lymphocytes Plasma ([6]; dose 12.5 mg/mL [sic]): 3.2 cells/nL
- Neutrophils Plasma ([6]; dose 12.5 mg/mL [sic]): 0.9 cells/nL
- Lymphocytes Plasma ([6]; dose printed 6 mg/mL): 2.8 cells/nL
- Neutrophils Plasma ([6]; dose printed 6 mg/mL): 1.1 cells/nL
